Tests used:
Type in all cases: cell-based
GLUT1 = molecular target: T1, GLUT1 (Homo sapiens, UniProt P11166); assay: 2-DOG transport in HEK293 cells over-expressing GLUT1; details: pre-treated 5 minutes, 2-DOG uptake 4 min; read-out: IC50 (inhibition of 2-DOG transport in HEK cells over-expressing GLUT isoforms) GLUT1
T1 construct: expressed in transfected cells; host or cells: HEK293
T1 sequence (P11166 1-492): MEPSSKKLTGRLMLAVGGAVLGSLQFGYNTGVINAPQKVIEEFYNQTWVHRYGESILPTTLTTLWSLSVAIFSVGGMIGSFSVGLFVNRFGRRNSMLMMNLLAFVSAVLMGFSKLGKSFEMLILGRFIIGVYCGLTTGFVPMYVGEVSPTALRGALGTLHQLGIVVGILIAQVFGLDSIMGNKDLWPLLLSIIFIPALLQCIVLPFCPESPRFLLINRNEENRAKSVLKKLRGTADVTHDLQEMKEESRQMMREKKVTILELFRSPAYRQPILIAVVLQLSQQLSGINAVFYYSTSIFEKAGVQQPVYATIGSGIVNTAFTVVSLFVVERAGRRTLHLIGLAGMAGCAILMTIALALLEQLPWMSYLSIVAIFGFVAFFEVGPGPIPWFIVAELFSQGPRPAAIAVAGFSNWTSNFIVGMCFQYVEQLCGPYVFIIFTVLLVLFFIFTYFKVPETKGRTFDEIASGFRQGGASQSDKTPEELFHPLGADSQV
Method: Tissue culture plates were pretreated with 25 μg/ml polyethyleneimine (Fluka, catalogue number P3143) in 150 mM NaCl for 20min to let cells adhere. JNN3 cells were subsequently plated and grown to 40-60% confluency in complete RPMI 1640 medium. HEK293 GLUT overexpressing cells were plated at 400,000 cells/ml overnight. Cells were then washed with glucose-free HEPES buffer twice and starved for 30 min. The uptake of 2-[^3H] deoxy-D-glucose (2-DOG) (50 μM) was measured in glucose-free HEPES buffer for 4-6 min at 37° C. Compound 20 (20 μM) was added 5-6 min prior to the addition of glucose depending on the specific assay. For the HEK293 GLUT overexpressing cells, non-specific uptake was measured in non-transfected HEK293 cells containing the shRNA GLUT1 knockdown and was subtracted from the experimental values. Data are plotted as percent uptake relative to unexposed HEK293 cultures. Data were normalized to fit by nonlinear regression analysis using GraphPad Prism software. […]
Glucose transport in HEK293 cells over-expressing GLUT1 or over-expressing GLUT4 or GLUT8 in cells lacking GLUT1 were used to evaluate inhibition of glucose transport. […] Non-specific uptake was measured in nontransfected HEK293 cells containing the shRNA GLUT1 knockdown and was subtracted from the experimental values.

GLUT4 = molecular target: T2, GLUT4 (Homo sapiens, UniProt P14672); assay: 2-DOG transport in HEK293 cells over-expressing GLUT4; details: pre-treated 5 minutes, 2-DOG uptake 4 min; cells lacking GLUT1; read-out: IC50 (inhibition of 2-DOG transport in HEK cells over-expressing GLUT isoforms) GLUT4
T2 construct: expressed in transfected cells; host or cells: HEK293 stably expressing GLUT1 shRNA
T2 sequence (P14672 1-509): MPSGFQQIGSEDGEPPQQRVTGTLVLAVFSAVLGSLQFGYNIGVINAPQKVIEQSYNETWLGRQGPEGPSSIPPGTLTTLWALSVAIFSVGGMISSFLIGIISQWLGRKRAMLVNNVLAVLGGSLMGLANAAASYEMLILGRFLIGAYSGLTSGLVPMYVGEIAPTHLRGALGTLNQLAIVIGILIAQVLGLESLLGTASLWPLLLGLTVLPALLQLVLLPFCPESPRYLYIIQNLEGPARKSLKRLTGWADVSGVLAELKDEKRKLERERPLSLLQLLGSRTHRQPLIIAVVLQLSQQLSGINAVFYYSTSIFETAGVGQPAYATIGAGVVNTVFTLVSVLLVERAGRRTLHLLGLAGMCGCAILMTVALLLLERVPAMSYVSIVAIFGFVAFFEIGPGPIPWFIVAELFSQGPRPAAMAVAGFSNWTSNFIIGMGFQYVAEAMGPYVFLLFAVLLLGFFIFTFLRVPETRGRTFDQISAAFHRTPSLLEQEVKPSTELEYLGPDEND
Method: (§1) Tissue culture plates were pretreated with 25 μg/ml polyethyleneimine (Fluka, catalogue number P3143) in 150 mM NaCl for 20min to let cells adhere. JNN3 cells were subsequently plated and grown to 40-60% confluency in complete RPMI 1640 medium. HEK293 GLUT overexpressing cells were plated at 400,000 cells/ml overnight. Cells were then washed with glucose-free HEPES buffer twice and starved for 30 min. The uptake of 2-[^3H] deoxy-D-glucose (2-DOG) (50 μM) was measured in glucose-free HEPES buffer for 4-6 min at 37° C. Compound 20 (20 μM) was added 5-6 min prior to the addition of glucose depending on the specific assay. For the HEK293 GLUT overexpressing cells, non-specific uptake was measured in non-transfected HEK293 cells containing the shRNA GLUT1 knockdown and was subtracted from the experimental values. Data are plotted as percent uptake relative to unexposed HEK293 cultures. Data were normalized to fit by nonlinear regression analysis using GraphPad Prism software.
(§2) Compound 20 was further screened for GLUT4 selectivity by evaluating inhibition of glucose transport in HEK 293 cells exogenously over-expressing human GLUTs-1, -2, -3, -4, or -8 that also stably express GLUT1 shRNA (except the GLUT1 overexpressing cell line) to knock down endogenous GLUT1.
(§3) Glucose transport in HEK293 cells over-expressing GLUT1 or over-expressing GLUT4 or GLUT8 in cells lacking GLUT1 were used to evaluate inhibition of glucose transport. Cells were pre-treated with compound for 5 minutes followed by evaluation of […] uptake for 4 min at […]. Non-specific uptake was measured in nontransfected HEK293 cells containing the shRNA GLUT1 knockdown and was subtracted from the experimental values.

KMS11-GLUT1 cells = assay: Proliferation of KMS11-GLUT1 myeloma cells (Cell Titre Glo); details: inhibition of proliferation, 72 hours
Method: (§4) IC50 studies were performed using the CellTiter-Glo assay (Promega, Madison, Wis.). 20,000 cells in 100 ul complete RPMI 1640 medium were plated per well in 96-well plates, with a concentration range of individual compounds. After 72 h incubation, 100 uL Glo reagent were added to each well and luminescence was measured using a Biotek Synergy 4 multimode plate reader. Cell number was assessed by trypan blue standing and an automatic cell counter (Biorad). For cell viability assays 0.125×10^6 cells/mL were treated with the indicated concentration of drug, washed with 1×PBS and evaluated for viability by AnnexinV/DAPI staining and flow cytometry. Data analysis was per-formed with the FCS express version 3 (De Novo software, Los Angeles).
(§5) Compound were selected as a lead based on its low IC50, selectivity for inhibition of glucose transport through GLUT4, and inhibition of the KMS11-GFP cell line proliferation in contrast to the GLUT1 expressing isogenic line. Compounds were assessed in a high-throughput proliferation-based assay using an isogenic MM (KMS11) cell line pair overexpressing GLUT1 or GFP (as a control) (model of screen is depicted in FIG. 2A). […] Isogenic KMS11-GFP/GLUT1 overexpressing myeloma cell lines were treated with a dose range of the indicated test compound for 72 hours followed by evaluation of viable cell number by Cell Titre Glo assay

GLUT8 = molecular target: T3, GLUT8 (Homo sapiens, UniProt Q9NY64); assay: 2-DOG transport in HEK293 cells over-expressing GLUT8; details: pre-treated 5 minutes, 2-DOG uptake 4 min; cells lacking GLUT1; read-out: IC50 (inhibition of 2-DOG transport in HEK cells over-expressing GLUT isoforms) GLUT8
T3 construct: expressed in transfected cells; host or cells: HEK293 stably expressing GLUT1 shRNA
T3 sequence (Q9NY64 1-477): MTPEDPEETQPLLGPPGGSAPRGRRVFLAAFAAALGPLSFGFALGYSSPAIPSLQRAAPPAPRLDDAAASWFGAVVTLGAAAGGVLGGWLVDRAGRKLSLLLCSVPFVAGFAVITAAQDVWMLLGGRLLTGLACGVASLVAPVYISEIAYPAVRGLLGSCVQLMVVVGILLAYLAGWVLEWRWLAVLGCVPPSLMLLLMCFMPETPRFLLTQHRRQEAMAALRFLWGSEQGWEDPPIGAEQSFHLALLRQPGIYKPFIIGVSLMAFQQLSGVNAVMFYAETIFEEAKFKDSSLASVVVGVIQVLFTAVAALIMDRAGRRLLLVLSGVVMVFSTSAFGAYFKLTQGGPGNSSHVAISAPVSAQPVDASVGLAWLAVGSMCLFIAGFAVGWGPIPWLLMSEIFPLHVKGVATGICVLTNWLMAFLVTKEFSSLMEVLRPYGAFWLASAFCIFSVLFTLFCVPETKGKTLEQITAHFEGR
Method: as §1, §2, §3

KMS11-GFP cells = assay: Proliferation of KMS11-GFP myeloma cells (Cell Titre Glo)
Method: as §4, §5

COc1ccc(C(=O)N(Cc2ccncc2)Cc2cccc(OCc3cccc(OC)c3)c2)cc1 [Compound 17, 4-Methoxy-N-(3-((3-methoxybenzyl)oxy)benzyl)-N-(pyridin-4-ylmethyl)benzamide]
IC50 (GLUT1): > 100 µM | IC50 (GLUT4): 10.8 µM | EC50 (KMS11-GLUT1 cells): 28.5 µM | IC50 (GLUT8): > 100 µM | EC50 (KMS11-GFP cells; inhibition of proliferation, 72 hours, Cell Titre Glo): 16.9 µM | impact on proliferation in KMS11-GFP cells compared with KMS11-GLUT1 cells (KMS11-GFP cells; isogenic cell line pair): greater impact on proliferation in KMS11-GFP cells

Reference: US20190321345A1, “GLUT4 Selective Inhibitors for Cancer Therapy” (Emory University, priority 2016, published 2019)
